Measured values from patent US10765114B2, “4-amino-6-(pyridyl and 2-substitutedphenyl)-picolinates and 6-amino-2-(pyridyl and 2-substitutedphenyl)-pyrimidine-4-carboxylates and their use as herbicides” (Dow AgroSciences LLC, priority 2013, dated 2020).
Where two headings read alike, the source gives them in different places.

Legend:
[1] = system: Key Broadleaf Weed and Crop Species; assay: Post-Emergent Test II (Table 5); type: in vivo; conditions: post-emergence, 336 h; for pest or weed control at 70 g/ha: application rate 70 (kg ai/ha; footnote: g ai/ha); for pest or weed control at 140 g/ha: application rate 140 (kg ai/ha; footnote: g ai/ha)
In short: (§1)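 Post-emergence greenhouse spray, 1st-2nd true leaf stage; track sprayer, 187 L/ha; acetone/DMSO stock diluted in aqueous acetone/IPA/DMSO with Atplus 411F and Triton X-155; rates 1× to 1/16×; subirrigated; visual injury 0 (none) to 100% (complete kill) at 14 days.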

[2] = system: Key Grass and Sedge Weeds as well as Grass Crops; assay: Post-Emergent Test II (Table 6); type: in vivo; conditions: post-emergence, 336 h, 14 days after application; for pest or weed control at 70 g/ha: 70 g ai/ha; for pest or weed control at 140 g/ha: 140 g ai/ha
In short: as §1

[3] = Abutilon theophrasti, ABUTH: velvetleaf (Abutilon theophrasti), read-out: Visual Growth Reduction (%) 14 Days After Application ABUTH
[4] = Amaranthus retroflexus, AMARE: redroot pigweed (Amaranthus retroflexus), read-out: Visual Growth Reduction (%) 14 Days After Application AMARE
[5] = Brassica napus, BRSSS: oilseed rape, canola (Brassica napus), read-out: Visual Growth Reduction (%) 14 Days After Application BRSSS
[6] = Chenopodium album, CHEAL: lambsquarters (Chenopodium album), read-out: Visual Growth Reduction (%) 14 Days After Application CHEAL
[7] = Euphorbia heterophylla, EPHHL: wild poinsettia (Euphorbia heterophylla), read-out: Visual Growth Reduction (%) 14 Days After Application EPHHL
[8] = Helianthus annuus, HELAN: sunflower (Helianthus annuus), read-out: Visual Growth Reduction (%) 14 Days After Application HELAN
[9] = Viola tricolor, VIOTR: wild pansy (Viola tricolor), read-out: Visual Growth Reduction (%) 14 Days After Application VIOTR
[10] = CYPSS, read-out: Visual Growth Reduction (%) 14 Days After Application CYPSS
[11] = DIGSA: crabgrass (Digitaria sanguinalis), read-out: Visual Growth Reduction (%) 14 Days After Application DIGSA
[12] = ECHSS, read-out: Visual Growth Reduction (%) 14 Days After Application ECHSS
[13] = ORYSS (crop), read-out: Visual Growth Reduction (%) 14 Days After Application ORYSS
[14] = SETFA: giant foxtail (Setaria faberi), read-out: Visual Growth Reduction (%) 14 Days After Application SETFA
[15] = SORVU: grain sorghum (Sorghum vulgare), read-out: Visual Growth Reduction (%) 14 Days After Application SORVU
[16] = TRZSS (crop), read-out: Visual Growth Reduction (%) 14 Days After Application TRZSS
[17] = ZEAMX: maize, corn (Zea mays), read-out: Visual Growth Reduction (%) 14 Days After Application ZEAMX

| Compound | pest or weed control at 70 g/ha [1, 3] [%] | pest or weed control at 140 g/ha [1, 3] [%] | pest or weed control at 70 g/ha [1, 4] [%] | pest or weed control at 140 g/ha [1, 4] [%] | pest or weed control at 70 g/ha [1, 5] [%] | pest or weed control at 140 g/ha [1, 5] [%] | pest or weed control at 70 g/ha [1, 6] [%] | pest or weed control at 140 g/ha [1, 6] [%] | pest or weed control at 70 g/ha [1, 7] [%] | pest or weed control at 140 g/ha [1, 7] [%] | pest or weed control at 70 g/ha [1, 8] [%] | pest or weed control at 140 g/ha [1, 8] [%] | pest or weed control at 70 g/ha [1, 9] [%] | pest or weed control at 140 g/ha [1, 9] [%] | melting point [°C] | pest or weed control at 70 g/ha [2, 10] [%] | pest or weed control at 140 g/ha [2, 10] [%] | pest or weed control at 70 g/ha [2, 11] [%] | pest or weed control at 140 g/ha [2, 11] [%] | pest or weed control at 70 g/ha [2, 12] [%] | other results |
| --- | --- | --- | --- | --- | --- | --- | --- | --- | --- | --- | --- | --- | --- | --- | --- | --- | --- | --- | --- | --- | --- |
| COC(=O)c1nc(-c2ccc(C(F)(F)F)nc2)c(Cl)c(N)c1Cl [Compound 83] | 60 to 74 | 60 to 74 | 0 to 29 | 0 to 29 | 45 to 59 | 45 to 59 | 60 to 74 | 75 to 84 | 0 to 29 | 30 to 44 | 85 to 94 | 85 to 94 | 0 to 29 | 0 to 29 | 148 to 150 | 30 to 44 | 45 to 59 | 60 to 74 | 75 to 84 | 60 to 74 | pest or weed control at 140 g/ha [2, 12]: 75 to 84%; pest or weed control at 70 g/ha [2, 13]: 0 to 29%; pest or weed control at 140 g/ha [2, 13]: 0 to 29%; pest or weed control at 70 g/ha [2, 14]: 75 to 84%; pest or weed control at 140 g/ha [2, 14]: 75 to 84%; pest or weed control at 70 g/ha [2, 15]: 75 to 84%; pest or weed control at 140 g/ha [2, 15]: 75 to 84%; pest or weed control at 70 g/ha [2, 16]: 45 to 59%; pest or weed control at 140 g/ha [2, 16]: 60 to 74%; pest or weed control at 70 g/ha [2, 17]: 75 to 84%; pest or weed control at 140 g/ha [2, 17]: 75 to 84% |
| COC(=O)c1nc(-c2ccc(Cl)c(Cl)c2C)cc(N)c1Cl [Compound 77] | 95 to 100 | 95 to 100 | 95 to 100 | 95 to 100 | 95 to 100 | 95 to 100 | 95 to 100 | 95 to 100 | 0 to 29 | 0 to 29 | 45 to 59 | 60 to 74 | 0 to 29 | 0 to 29 | 136 to 142 | 0 to 29 | 0 to 29 | 0 to 29 | 0 to 29 | 0 to 29 | pest or weed control at 140 g/ha [2, 12]: 0 to 29%; pest or weed control at 70 g/ha [2, 13]: 0 to 29%; pest or weed control at 140 g/ha [2, 13]: 0 to 29%; pest or weed control at 70 g/ha [2, 14]: 0 to 29%; pest or weed control at 140 g/ha [2, 14]: 0 to 29%; pest or weed control at 70 g/ha [2, 15]: 0 to 29%; pest or weed control at 140 g/ha [2, 15]: 0 to 29%; pest or weed control at 70 g/ha [2, 16]: 0 to 29%; pest or weed control at 140 g/ha [2, 16]: 0 to 29%; pest or weed control at 70 g/ha [2, 17]: 0 to 29%; pest or weed control at 140 g/ha [2, 17]: 0 to 29% |
| CCc1c(-c2cc(N)c(Cl)c(C(=O)O)n2)ccc(Cl)c1F [Compound 86] | 45 to 59 | 0 to 29 | 85 to 94 | 85 to 94 | 75 to 84 | 85 to 94 | 85 to 94 | 85 to 94 | 0 to 29 | 0 to 29 | 75 to 84 | 75 to 84 | 0 to 29 | 0 to 29 | 144 to 146 | 0 to 29 | 0 to 29 | 0 to 29 | 0 to 29 | 0 to 29 | pest or weed control at 140 g/ha [2, 12]: 0 to 29%; pest or weed control at 70 g/ha [2, 13]: 0 to 29%; pest or weed control at 140 g/ha [2, 13]: 0 to 29%; pest or weed control at 70 g/ha [2, 14]: 0 to 29%; pest or weed control at 140 g/ha [2, 14]: 0 to 29%; pest or weed control at 70 g/ha [2, 15]: 0 to 29%; pest or weed control at 140 g/ha [2, 15]: 0 to 29%; pest or weed control at 70 g/ha [2, 16]: 0 to 29%; pest or weed control at 140 g/ha [2, 16]: 0 to 29%; pest or weed control at 70 g/ha [2, 17]: 0 to 29%; pest or weed control at 140 g/ha [2, 17]: 0 to 29% |
